Source: paper PMC8018465, “Antimicrobial activities of a small molecule compound II-6s against oral streptococci” (Journal of Oral Microbiology, 2021)

Tests used:
[1] = parameters: method as in PMID 29355409; settings: 0.12% CHX daily for a week, repeated every month; in 18 months; cited from earlier work
S. mutans = test: Dose-dependent killing assay; assay type: cell-based, Streptococcus mutans UA159; settings: equivalent doses, 5-min exposure
Method: The time- and dose-dependent killing capacities of II-6s were assessed by the method modified from that of Koo et al.. S. mutans was diluted to 1 × 10^7 CFU/ml in BHI broth containing test compounds or not, and incubated in 5% CO2 at 37°C. For the time-kill curve, the final concentration of II-6s and CHX was equivalent to their MBC. At 0, 0.5, 1, 2, 4, 6, 8 and 10 h, samples were serially diluted in PBS and 50 μl aliquots were spread onto BHI agar medium. For the dose-dependent killing curve, S. mutans was treated with different doses of II-6s and CHX for 5 min before diluted and spread. All plates were incubated anaerobically for 48 h followed by enumeration of CFU. The time-kill or dose-dependent killing curves were constructed by plotting the log10(CFU/ml) versus the incubation time or concentration. The experiment was performed in triplicates and repeated at least three times.

[2] = tested on: methicillin-resistant Staphylococcus aureus (MRSA); parameters: method as in PMID 30940910; settings: cited from earlier work
[3] = In vitro cytotoxicity assay (CCK-8); assay type: cell-based, human; settings: human, 5 min exposure
Method: (§1) The cytotoxicity of II-6s was evaluated by the Cell Counting Kit-8 (CCK-8; Dojindo, Kumamoto, Japan) assay as described by Park et al.. Human gingival epithelial cells (HGE), human oral keratinocytes (HOK) and macrophages RAW264.7 (RAW264.7) were provided by the State Key Laboratory of Oral Diseases, Sichuan University, China. HGE, HOK and RAW264.7 were grown in Dulbecco’s modified Eagle’s medium (DMEM; GibcoTM, Invitrogen, Carlsbad, CA, USA) supplemented with 10% fetal bovine serum (FBS; Invitrogen) and 1% penicillin–streptomycin solution (Invitrogen) and cultured at 37°C in a humidified atmosphere containing 5% CO2. All cells were inoculated into 96 well plates at a density of 1 × 10^4 cells per well for 24 h and then treated with II-6s (0.98 to 500 μg/ml) for 5 min or 24 h. The positive control was treated with CHX (0.98 to 500 μg/ml) at the same time. After treatment, the wells were washed with sterile PBS and fresh medium was added. 10 μl of CCK-8 solution (10 μl) was added to each well and incubated for 1.5 h. The absorbance of each well was measured at the wavelength of 450 nm against a blank which contained medium only. Cell viability was calculated according to the following formula: percent viability = (A450 of treated group − A450 of blank control)/(A450 of negative control − A450 of blank control) × 100%. The experiment was conducted in triplicates and repeated three times.

[4] = tested on: human oral keratinocytes (HOK); test: In vitro cytotoxicity assay (CCK-8); assay type: cell-based; settings: 24 h exposure
Method: as §1

[5] = tested on: Human gingival epithelial cells (HGE); test: In vitro cytotoxicity assay (CCK-8); assay type: cell-based; settings: 24 h exposure
Method: as §1

[6] = In vitro cytotoxicity assay (CCK-8); assay type: cell-based; settings: mouse, RAW264.7 macrophages; RAW264.7, 5 min exposure
Method: as §1

macrophages RAW264.7 = test: In vitro cytotoxicity assay (CCK-8); assay type: cell-based; settings: RAW264.7, 24 h exposure
Method: as §1

[7] = tested on: methicillin-susceptible S. aureus; parameters: method as in PMID 30940910; settings: cited from earlier work

## [H]/N=C(\N/C(=N/[H])NCCCCCCNC(=N)NC(=N)Nc1ccc(Cl)cc1)Nc1ccc(Cl)cc1 [CHX, Chlorhexidine digluconate, reference compound]
[1]
  patients at high caries risk reduced to moderate or low risk: approximately 70%

## CC(C)(Cc1ccc2ccccc2c1)NC[C@H](O)CNc1cc(C(F)(F)F)cc(C(F)(F)F)c1 [II-6s, (S)-1-((3,5-bis(trifluoromethyl)phenyl)amino)-3-((2-methyl-1-(naphthalen-2-yl)propan-2-yl)amino)propan-2-ol]
S. mutans
  bactericidal activity in dose-dependent killing assay: better bactericidal activities than CHX
[2]
  antimicrobial activity against MRSA: decent antimicrobial activity
[3]; human gingival epithelial cells (HGE)
  IC50 at 5 min: > 125 µg/mL
[3]; human oral keratinocytes (HOK)
  IC50 at 5 min: > 125 µg/mL
[4]
  IC50 (cytotoxicity), compared with CHX: higher than that of CHX
[5]
  IC50 (cytotoxicity), compared with CHX: higher than that of CHX
[6]
  IC50 at 5 min: > 125 µg/mL
Macrophages RAW264.7
  IC50 (cytotoxicity), compared with CHX: higher than that of CHX
[7]
  antimicrobial activity against methicillin-susceptible S. aureus: decent antimicrobial activity
